According to publication PMC8624133, “10th Trends in Medical Mycology Held on 8 to 11 October 2021, Aberdeen, Scotland, Organized by the European Confederation of Medical Mycology (ECMM)” (Journal of Fungi, 2021):
Converted amounts (≈) assume the structure as drawn.

Assays:
[1] = test system: C. auris clinical strains; test: organism not typed; assay type: cell-based, Candida auris; conditions: range, 78 strains from patients with COVID-19
[2] = test system: Rasamsonia argillacea species complex; test: Antifungal susceptibility testing; assay type: cell-based; conditions: sputum isolate of a CF patient
[3] = test system: Scedosporium apiospermum; test: EUCAST reference method MIC; assay type: cell-based
Procedure: Case presentation: A patient presented with a bursitis of their left elbow. Six months before they were treated with lymphodepleting chemotherapy directly followed by B-cell associated CD19-specific chimeric antigen receptor (CAR) T cell therapy for recurrence of follicular lymphoma. They were considered immunocompromised, with total neutrophils and lymphocytes slightly below normal levels, absent B-cells, and a treatment associated persistent hypogammaglobulinaemia. Four weeks before presentation at our hospital they contacted their GP because of swelling and pain of their left elbow. Their GP aspirated fluid from their elbow, injected steroids and started antibiotics, but now there was recurrence of swelling and pain. Bursitis without arthritis was diagnosed by a rheumatologist and the bursa was surgically opened and drained, relieving pus. The patient was started on oral flucloxacillin and sent home. Two days later the culture of the pus from the bursa grew white colonies on a Sabouraud dextrose agar plate, showing long conidophores with large oval conidia on microscopy. […] Over the next few weeks the bursitis symptoms diminished. […] Voriconazole is considered first line treatment for Scedosporium infections. […] Eight weeks later there were no signs of bursitis and posaconazole was discontinued.

[4] = Triazole drug levels in ABPA patients with asthma; assay type: in vivo, human; conditions: 452 patients, Oct 2009 to March 2021
Source text: Materials & Methods: This was a retrospective single-centre cohort study evaluating longitudinal outcomes in non-cystic fibrosis (CF) ABPA patients with underlying chronic lung disease (asthma), and description of treatment approaches. Statistical Analysis System (SAS) programming was used for data integration from multiple hospital electronic systems, for patient identification and data analysis. Criteria for inclusion were patients with a background of asthma, serum Total IgE >1000 IU/mL and a positive Aspergillus IgE, with or without a positive culture for A. fumigatus from a respiratory sample. Data collected included demographics, lung function severity, disease activity serological markers (Aspergillus IgE, Aspergillus IgG, Total IgE) and triazole levels. In this study the impact of fungal therapy on disease outcomes was assessed.

[5] = test system: R. delemar; test: Murine mucormycosis, immunosuppressed mice infected intratracheally; assay type: in vivo, ICR mice; conditions: n = 20/arm
Procedure: (§1) Methods & Materials: In vitro susceptibility was conducted by the CLSI M38 method using a clinical isolate of Rhizopus delemar (a common cause of mucormycosis). ICR mice were immunosuppressed with cyclophosphamide and cortisone acetate on days −2, +3, and +8, relative to infection with intratracheally instilled R. delemar. […] Mice survival through Day +21 served as the primary endpoint.

[6] = test system: A. fumigatus strains; test: EUCAST E.DEF 9.3.2 broth microdilution; assay type: cell-based, Aspergillus fumigatus; parameters: MIC Range: unit not given beside the values; MIC50 / MIC90: unit not given here
Procedure: Methods: The research was conducted on 29 A. fumigatus strains. Minimum inhibitory concentrations (MIC) were detected by broth microdilution method (BM) following EUCAST definitive document E.DEF 9.3.2 and E-test in accordance with manufacturer instructions.

[7] = test system: R. delemar 99–880; test: CLSI M38 in vitro susceptibility; assay type: cell-based, Rhizopus delemar; conditions: Rhizopus delemar, read-out: MIC at 100% inhibition of growth
Procedure: as §1

[8] = test system: C. tropicalis; test: ARIA surveillance, CLSI M27 broth microdilution; assay type: cell-based, Candida tropicalis
Procedure: Materials & Methods: Isolates (n = 730) were collected and re-identified by MALDI-TOF or molecular methods. […] Percentage susceptibility (%S) or wild-type (%WT) were calculated according to CLSI breakpoints (CLSI supplement M60) or epidemiological cut-off values (CLSI supplement M59), respectively.

[9] = test system: Exophiala phaeomuriformis; test: MIC, CLSI M27-A3; assay type: cell-based; conditions: read-out: MIC values
Procedure: Materials & Methods: The aviation kerosone samples came from an aviation company in Porto Alegre, state of Rio Grande do Sul, Brazil. The fungi isolation was carried out using the modified ASTM D6974-09 Standard. In this procedure, 500 mL kerosene samples were filtered, in triplicate, under aseptic conditions, under vacuum, using a 0.22 μm membrane (Millipore). After filtering, the membranes were deposited in potato dextrose agar culture medium. The plates were incubated in an oven at 30 °C for seven days. After this period, the colonies were isolated in new culture media for purification of the isolates. Molecular identification was performed through the sequencing of ITS DNA regions. The profile of sensitivity to clinical antifungals was assessed following protocols M27-A3 of the Clinical and Laboratory Standards Institute (CLSI).

[10] = test system: Phaeoacremonium parasiticum; test: Antifungal susceptibility testing; assay type: cell-based
Procedure: Results: Cultures for bacteria were sterile. Culture on Sabouraud was positive after 5 days of incubation, showing slow growing and initially white colonies. […] Its identification was performed by sequencing the internal transcribed spacer (ITS) region of ribosomal DNA, being the isolate identified as Phaeoacremonium parasiticum (100% homology).

[11] = test system: A. fumigatus strain v79-63; test: EUCAST MIC of the infecting strain; assay type: cell-based; conditions: Aspergillus fumigatus, V7963
[12] = test system: A. niger complex; test: EUCAST E.Def 9.3.2 susceptibility, CPA isolates; assay type: cell-based, Aspergillus niger complex; conditions: n = 7, ECOFFs
[13] = test system: C. auris Isolate B and Isolate C; test: microbe, parasite or virus in culture; assay type: cell-based, Candida auris
[14] = test system: A. fumigatus complex; conditions: share of isolates, n = 59, EUCAST clinical breakpoints
[15] = test system: A. fumigatus clinical isolates; test: Susceptibility of clinical isolates from CF patients; conditions: all 10 clinical isolates
[16] = test system: azole-resistant A. fumigatus SS clinical strains; test: EUCAST E.DEF 9.3.2; assay type: cell-based; conditions: Aspergillus fumigatus
[17] = test system: A. fumigatus (resistant to posaconazole strain v79-63); test: Neutropenic animal model of invasive pulmonary aspergillosis; assay type: in vivo, CD-1 mice
[18] = test system: A. fumigatus veterinary isolates; test: EUCAST microdilution of veterinary isolates; assay type: cell-based, Aspergillus fumigatus
Procedure: All have been confirmed as A. fumigatus by MALDI-TOF MS using the BCCM/IHEM database. The antifungal susceptibility was evaluated using the microdilution EUCAST method. Cyp51A gene sequencing has been performed on all resistant isolates.

[19] = test system: Rhizopus arrhizus; test: E test; assay type: cell-based
[20] = test system: eumycetoma; conditions: in vivo; cited from earlier work
Source text: Mycetoma: Mycetoma is a chronic, progressive, implantation inflammatory disease characterised by severe and stigmatising deformities, disability, and high morbidity. The disease is caused by fungi (eumycetoma) and several Actinomycetales members (actinomycetoma). Its estimative global burden is 9000 cases. There are no robust epidemiological studies on mycetoma in SA, but it is tconsidered the third most prevalent endemic IM in SA, especially among low socioeconomic adult males living in rural areas from Argentina, Brazil, Colombia and Venezuela, where the principal agents are Madurella spp. a ...

[21] = test system: McLDM strains; test: EUCAST MIC, S. cerevisiae overexpressing M. circinelloides LDM, resistance phenotypes; assay type: cell-based, Saccharomyces cerevisiae
[22] = test system: invasive fungal diseases (IFDs); conditions: 41 patients; ref published case reports, PubMed and Embase, 1990–2020; cited from earlier work
Source text: Among the 41 patients with IFDs, were those with invasive candidiasis and invasive mould diseases, including those caused by Aspergillus spp., Mucorales, and Fusarium spp. Sixteen (39%) had baseline neutropenia and 27 (66%) were considered to be refractory to standard therapy prior to GM-CSF administration. Among the 41 patients with IFDs, complete responses were reported in 35 (85%) patients and partial response in 1 patient, with 5 patients having no or unclear response. || Previously published case reports on the use of GM-CSF for adjunctive treatment of IFDs are summarized in Table 2. […]

[23] = test system: C. albicans; test: Neutrophil control of hyphal growth (swarming); assay type: cell-based, Candida albicans; conditions: neutrophils of SOT and SCT recipients, ex vivo
Procedure: Methods and Materials: Twenty-one SOT, 19 SCT and 23 healthy control patients (HC) were identified and consented at primary care/outpatient transplant clinics. Transplant recipients were enrolled at a time period two to four months post-transplant. Following consent and peripheral blood collection, neutrophils were freshly isolated and co-incubated with C. albicans and the percent remaining live yeast was measured using a viability dye compared to a standard control to determine fungal elimination by neutrophils. Growth inhibition of C. albicans was also quantified by neutrophil swarming to yeast spotted onto glass slides, assessed by live cell imaging with or without G-CSF. Effect of soluble factors on neutrophils function was determined by incubation of healthy neutrophils with SOT and SCT serum and measuring ability to control C. albicans.

Q: Which MIC [1] does the source give for `CC[C@@H]([C@H](C)O)n1ncn(-c2ccc(N3CCN(c4ccc(OC[C@@H]5CO[C@@](Cn6cncn6)(c6ccc(F)cc6F)C5)cc4)CC3)cc2)c1=O` [posaconazole] here?
A: The MIC was 0.06 to 8 µg/mL (≈ 0.0856 to 11.4 µM).

Q: What about the “minimal inhibitory concentrations (MIC)” value [2] of the same molecule?
A: Its value is “high minimal inhibitory concentrations”.

Q: And the MIC ([3]; first isolate from bursa pus)?
A: Its MIC is 1 µg/mL (≈ 1.43 µM).

Q: What about the MIC ([3]; isolate two months later, under posaconazole) of the same molecule?
A: Its MIC is 2 µg/mL (≈ 2.85 µM).

Q: And the “median trough drug level” value [4]?
A: The value was 1.39 mg/L.

Q: And the “% Survival” value ([5]; through Day +21, placebo 0)?
A: The value was 25%.

Q: What about the “Median Survival” value ([5]; treatment from 24 h post infection, IBREXA 30 mg/kg po BID 7 d, LAMB 10 mg/kg iv 4 d, POSA 30 mg/kg po QD 7 d, placebo 8) of the same molecule?
A: The value was 13 days.

Q: And the MIC50 ([6]; 28 h)?
A: Its MIC50 is 0.25.

Q: And the MIC90 ([6]; 28 h)?
A: The MIC90 was 0.5.

Q: And the “MIC Range” value ([6]; 28 h, 29 strains)?
A: The value was 0.125–2.

Q: What about the MIC50 ([6]; 48 h) of the same molecule?
A: The MIC50 was 0.25.

Q: And the MIC90 ([6]; 48 h)?
A: The MIC90 was 0.5.

Q: What about the “MIC Range” value ([6]; 48 h) of the same molecule?
A: Its value is 0.125–4.

Q: And the MIC [7]?
A: The MIC was 0.5 µg/mL (≈ 0.713 µM).

Q: What about the WT ([8]; Argentina) of the same molecule?
A: The WT was 57.1%.

Q: What about the WT ([8]; Australia, Panama, USA and Taiwan) of the same molecule?
A: Its WT is > 90%.

Q: What about the WT ([8]; Italy) of the same molecule?
A: Its WT is 47.4%.

Q: And the MIC [9]?
A: The MIC was 0.125 µg/mL (≈ 0.178 µM).

Q: And the “minimal inhibitory concentrations (MIC), in words” value [10]?
A: The value was “low”.

Q: What about the MIC [11] of the same molecule?
A: The MIC was > 16 µg/mL.

Q: What about the Non-wild type isolates [12] of the same molecule?
A: The Non-wild type isolates was 43%.

Q: What about the “change of MIC” value [13] of the same molecule?
A: Its value is “largely unchanged”.

Q: And the “reduction in MIC” value ([13]; Isolate C with ERG11 WT in place of K143R)?
A: The value was 2 fold.

Q: What about the Resistance [14] of the same molecule?
A: Its Resistance is 5%.

Q: And the susceptibility [15]?
A: Its susceptibility is “susceptible”.

Q: And the MIC ([16]; strain from pleural fluid of an ICU patient, no mutations in cyp51A)?
A: The MIC was 0.5 µg/mL (≈ 0.713 µM).

Q: And the MIC ([16]; two strains from a cystic fibrosis patient, TR34/L98H)?
A: Its MIC is 1 µg/mL (≈ 1.43 µM).

Q: What about the log10CFU/lung ([17]; mean ± SEM, 3 animals treated for 3 d, placebo 6.1 ± 0.08) of the same molecule?
A: Its log10CFU/lung is 5.2 ± 0.48 log10CFU/lung.

Q: And the survival rates ([17]; survival recorded until 15 d, IL-18 10 ng/mouse intranasally daily -2 d till +7 d, posaconazole 16 mg/kg/day, groups of 10, control 20%)?
A: Its survival rates is 56%.

Q: And the “isolates in the area of technical uncertainty (ATU)” value [18]?
A: Its value is 60%.

Q: What about the MIC [19] of the same molecule?
A: Its MIC is > 32 µg/mL.

Q: What about the Cure rate [20] of the same molecule?
A: The Cure rate was 25–35%.

Q: And the “MICs compared to AD2Δ” value [21]?
A: The value was “not affected”.

Q: What does the source list for “Granulocyte-macrophage colony stimulating factor [GM-CSF]”?
A: complete responses, n (%) [22]: 35 (85%); neutrophil ability to control hyphal growth [23]: partially restored
